Data: US10155948B2, “Pharmaceutical composition for preventing or treating diabetic complications and screening method for preventive or therapeutic agent for diabetic complications” (KANGWON NATIONAL UNIVERSITY UNIVERSITY-INDUSTRY COOPERATION …, priority 2016, dated 2018)

Columns and labels:
[1] = system: HRECs; test: Intracellular Ca2+ levels (Fluo4-AM, confocal) in HRECs; assay type: cell-based, human; conditions: 10 ng/ml VEGF, inhibitors 30 min
Protocol: Cells on coverslips were co-incubated with 2 μM Fluo4-AM and various inhibitors for 30 min at 37° C. Coverslips were scanned every 10 sec in the presence of 10 ng/ml VEGF using a confocal microscope (FV-300, Olympus Tokyo, Japan). Single-cell fluorescence intensities of peaks were determined for 10 randomly selected cells per trial.

[2] = molecular target: T1, TGase2 (Homo sapiens, UniProt P21980); test: In-situ TGase activity by confocal microscopy in VEGF-treated HRECs; assay type: cell-based; parameters: endogenous in cells; host or cells: human retinal endothelial cells (HRECs); conditions: 10 ng/ml VEGF 2 hrs, 50 μM cystamine, 20 μM MDC, 5 μM BAPTA-AM, 1 mM NAC, 0.5 μM Trolox, p<0.001
T1 sequence (P21980 1-687): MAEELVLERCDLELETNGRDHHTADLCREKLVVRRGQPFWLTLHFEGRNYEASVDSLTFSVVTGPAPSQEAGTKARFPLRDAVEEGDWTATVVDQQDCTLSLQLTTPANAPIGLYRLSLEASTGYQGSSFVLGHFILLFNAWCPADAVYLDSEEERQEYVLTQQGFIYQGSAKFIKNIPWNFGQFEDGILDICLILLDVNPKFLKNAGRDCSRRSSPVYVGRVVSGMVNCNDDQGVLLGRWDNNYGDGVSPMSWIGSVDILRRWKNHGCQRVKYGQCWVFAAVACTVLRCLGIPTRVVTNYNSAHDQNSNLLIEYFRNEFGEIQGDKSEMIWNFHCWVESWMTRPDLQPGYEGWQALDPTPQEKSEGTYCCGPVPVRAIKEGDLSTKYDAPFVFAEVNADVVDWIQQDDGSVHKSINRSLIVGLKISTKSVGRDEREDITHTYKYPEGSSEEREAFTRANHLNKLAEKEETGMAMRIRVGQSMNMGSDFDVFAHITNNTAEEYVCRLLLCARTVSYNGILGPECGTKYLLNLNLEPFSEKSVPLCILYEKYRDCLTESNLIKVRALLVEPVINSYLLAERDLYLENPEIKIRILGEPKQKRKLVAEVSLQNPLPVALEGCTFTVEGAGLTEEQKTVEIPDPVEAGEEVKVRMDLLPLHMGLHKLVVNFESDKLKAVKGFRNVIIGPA
Protocol: HUVEC isolation was done by our own supply and Human retinal endothelial cells (HRECs) were purchased from the Applied Cell Biology Research Institute (Cell Systems, Kirkland, Wash.). Both respectively were grown on 2% gelatin-coated plates in a M199 medium supplemented with 20% fetal bovine serum (FBS), 3 ng/ml basic fibroblastic growth factor, 5 units/ml heparin, 100 units/ml penicillin, and 100 μg/ml streptomycin. For experiments, cells were incubated for 6 hrs in a low-serum medium supplemented with 1% FBS and antibiotics.
In-situ Tgase transamidating activity was determined via confocal microscopic assay according to a previously known procedure. In brief, cells were incubated with 1 mM 5-(biotinamido)pentylamine (BAPA) for 1 hr at 37° C., fixed with 3.7% formaldehyde in PBS for 30 min, and permeabilized with 0.2% Triton X-100 in PBS for 30 min. After incubation with a blocking solution of 2% BSA in 20 mM Tris (pH 7.6), 138 mM NaCl, and 0.1% Tween 20 for 30 min, cells were treated with Cy3-conjugated streptavidin (1:200, v/v) in the blocking solution for 1 hr. Single-cell fluorescence intensities of stained cells were determined using confocal microscopy for 10 randomly selected cells per test. TGase activities were determined by comparing average fluorescence intensities of treated cells with those of control cells (expressed as multiples thereof).
HRECs were transfected with human TGase2-specific siRNA as described previously. In brief, cells were transfected with various concentrations of human TGase2-siRNA or 100 nM control siRNA (Dharmacon, Lafayette, Colo.) using siLentFect lipid reagent (Bio-Rad Laboratories, Hercules, Calif.) according to the manufacturer's instructions. Six hours after transfection with the indicated concentrations, the medium was replaced with a fresh culture medium and the transfected cells were further incubated for 24 hrs.
A detailed description of FIGS. 1A-1F are given below. […] (A, B) HRECs were incubated with 10 ng/ml VEGF for the indicated times (A) or for 2 hrs (B) in the presence of TGase inhibitors (50 μM cystamine and 20 μM MDC), 5 μM Ca^2+ chelator BAPTA-AM, or ROS scavengers (1 mM NAC or 0.5 μM Trolox). In-situ TGase activity was determined by confocal microscopy as described in Research Design and Methods (A: Time course changes in VEGF-induced transglutaminase activation; and B: Effects of various inhibitors on VEGF-induced transglutaminase activation). (C,D) HRECs were transfected with the indicated concentrations (C) or 100 nM (D) of human TGase2-specific siRNA (TGase2 siRNA) or 100 nM control (Ctrl) siRNA. Endothelial cells were treated with 10 ng/ml VEGF and subjected to confocal microscopic determination of in-situ TGase activity (C: Dose-dependent inhibition of TGase2 expression by TGase2 siRNA, TGase2 expression being analyzed by Western blot; and D: TGase2 siRNA prevention of VEGF-induced transglutaminase activation). FIGS. 1E and 1F show the effects of various inhibitors on the elevation of intracellular Ca^2+ (E) and ROS (F). Intracellular Ca^2+ and ROS levels were determined by confocal microscopy as described in Research Design and Methods. Results are expressed as mean±SD from three independent trials (***p<0.001).

[3] = system: HRECs; test: Intracellular ROS generation (H2DCFDA, confocal) in HRECs; assay type: cell-based, human; conditions: 10 ng/ml VEGF, inhibitors pretreated 30 min
Protocol: Intracellular ROS generation was determined using 2′,7′-dichlorodihydrofluorescein diacetate (H2DCFDA, Molecular Probes, Eugene, Oreg.) staining as previously described. Cells were pretreated with inhibitors for 30 min and co-incubated with 10 ng/ml of VEGF and 10 μM H2DCFDA in low-serum media (phenol red-free) for 10 min. Labeled cells were immediately analyzed using confocal microscopy (Fluoview-300, Olympus). Single-cell fluorescence intensities were determined for 10 randomly selected cells per test. Intracellular ROS levels were determined by comparing average fluorescence intensities of treated cells with those of control cells (expressed as multiples thereof). […] Intracellular Ca^2+ and ROS levels were determined by confocal microscopy as described in Research Design and Methods. Results are expressed as mean±SD from three independent trials (***p<0.001).

[4] = system: HRECs; test: Visualization of actin filaments (stress fiber formation) in HRECs; assay type: cell-based, human; conditions: summary statement, conditions not given
Protocol: (§1) Actin filaments and VE-cadherin were visualized as previously described. For visualization of actin filaments, cells were treated with 10 ng/ml VEGF for 1 hr at 37° C., fixed with 3.7% formaldehyde, and permeabilized with 0.2% Triton X-100. […] For visualization of VE-cadherin, cells were preincubated with the TGase2 inhibitors for 30 min and treated with 10 ng/ml VEGF for 90 min at 37° C. Following fixation and permeabilization, cells were incubated overnight with a monoclonal anti-VE-cadherin antibody (1:200, Santa Cruz Biotechnology) at 4° C. Cells were then probed with an FITC-conjugated goat anti-mouse antibody (1:200, Sigma) and VE-cadherin was visualized using confocal microscopy. Adherens junctions are represented by histograms of VE-cadherin as indicated by dotted lines and were quantitatively analyzed using peak fluorescence intensities of the histograms at the single-cell level for 10 randomly selected cells per experiment.
(§2) (A-C) HRECs were preincubated with 50 μM cystamine (Cys) and 20 μM MDC for 30 min and treated with 10 ng/ml VEGF. Stress fibers and VE-cadherin were stained and visualized by confocal microscopy as described in Research Design and Methods (n=3) ((A) Representative images of stress fibers. Scale Bar, 30 μm. (B) Representative images of VE-cadherin. Scale Bar, 10 μm). Adherens junctions are represented by histograms of VE-cadherin as indicated by dotted lines. (C) Adherens junctions were quantitatively analyzed using the peak fluorescence intensities of the histograms at the single-cell level. The results are expressed as mean±SD from three independent trials. (D) In-vitro endothelial cell monolayer permeability assay. HRECs on inserts of Transwell® Permeable Supports were incubated with 50 μM cystamine and 20 μM MDC for 30 min and treated with 10 ng/mL VEGF for 90 min. The amount of FITC-dextran that diffused to the lower chamber was measured by a microplate spectrofluorometer (n=3) (**p<0.01).
(§3) HRECs were transfected with 100 nM human TGase2-specific siRNA (TGase2 siRNA) or 100 nM control (Ctrl) siRNA. Endothelial cells were treated with 10 ng/ml VEGF and subjected to the confocal microscopic visualization of stress fibers (A) and VE-cadherin (B), as described in Research Design and Methods (n=3). (A) TGase2 siRNA inhibition of VEGF-induced formation of stress fibers. Scale bar, 30 μm. (B) Representative images of VE-cadherin and adherens junctions represented by VE-cadherin histograms. Scale bar, 10 μm. (C) Adherens junctions were quantitatively analyzed using peak fluorescence intensities of the histograms at the single-cell level. Results are expressed as mean±SD from three independent experiments (***p<0.001).

[5] = system: VE-cadherin; test: Visualization of VE-cadherin (adherens junction disruption) in HRECs; assay type: cell-based, human; conditions: summary statement, conditions not given
Protocol: as §1, §2, §3

[6] = molecular target: T2, TGase2 (Mus musculus, UniProt P21981); test: In-vivo TGase activity in retina of streptozotocin-diabetic mice; conditions: diabetic mice, intravitreal 2 μl: 50 mM cystamine, 20 mM MDC, 1 μM C-peptide, 2 μM Trolox, 500 mM NAC; after 24 hrs; n=8
T2 construct: from tissue; host or cells: retina of streptozotocin-diabetic C57BL/6 mice
T2 sequence (P21981 1-686): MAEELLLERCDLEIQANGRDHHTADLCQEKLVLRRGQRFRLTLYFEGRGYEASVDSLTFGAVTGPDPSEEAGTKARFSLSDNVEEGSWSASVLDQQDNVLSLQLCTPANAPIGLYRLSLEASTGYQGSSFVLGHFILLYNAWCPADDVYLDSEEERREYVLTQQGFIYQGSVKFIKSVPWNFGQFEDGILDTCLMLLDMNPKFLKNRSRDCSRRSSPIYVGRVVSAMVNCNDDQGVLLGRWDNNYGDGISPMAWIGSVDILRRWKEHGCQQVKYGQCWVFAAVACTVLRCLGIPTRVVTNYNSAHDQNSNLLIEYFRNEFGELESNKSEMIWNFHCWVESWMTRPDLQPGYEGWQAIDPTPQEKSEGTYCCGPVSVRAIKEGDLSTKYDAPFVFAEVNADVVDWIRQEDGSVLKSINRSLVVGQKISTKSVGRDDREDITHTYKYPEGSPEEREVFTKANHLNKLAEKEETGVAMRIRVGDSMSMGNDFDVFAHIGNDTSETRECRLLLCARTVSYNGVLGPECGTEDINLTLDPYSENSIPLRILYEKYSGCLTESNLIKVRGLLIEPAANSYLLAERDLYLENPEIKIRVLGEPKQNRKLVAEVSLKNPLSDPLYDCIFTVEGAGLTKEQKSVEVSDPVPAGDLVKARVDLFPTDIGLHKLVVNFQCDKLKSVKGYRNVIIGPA
Protocol: Two weeks after streptozotocin injection, diabetic mice were intravitreally injected with 2 μl of TGase inhibitors (50 mM cystamine or 20 mM MDC), 1 μM C-peptide (American Peptide Company, Sunnyvale, Calif.), ROS scavengers (2 μM Trolox or 500 mM NAC), or 65 μM mouse TG2-specific siRNA (Dharmacon, Lafayette, Colo.) into one eye and an equal volume of PBS or mouse control siRNA (Dharmacon, Lafayette, Colo.) into the contralateral eye. Non-diabetic mice were also intravitreally injected with 2 μl of PBS or mouse control siRNA into the eyes. After 24 hrs for inhibitors or C-peptide or 48 hrs for mouse TGase2 siRNA, mice were subjected to measurement of in-vivo TGase activity and vascular leakage from the retina.
In vivo Tgase transamidating activity was determined in mouse retina using confocal microscopy (FIG. 5A). 24 hrs after intravitreal injection of TGase2 inhibitors and C-peptide or 48 h after the injection of mouse TGase2-specific siRNA, mice were deeply anaesthetized using 2.5% avertin and 48 μl of 100 mM BAPA was injected into the left ventricle. BAPA was allowed to circulate for 10 min and mice were sacrificed by cervical dislocation. Eyes were then enucleated and immediately fixed with 4% paraformaldehyde for 45 min. Retinas were dissected in the Maltese cross-configuration and permeabilized with 0.2% Triton X-100 in PBS for 30 min at RT. After incubation with the blocking solution for 30 min, retinas were treated with FITC-conjugated streptavidin (1:200, v/v) in the blocking solution for 1 hr at RT. The superficial vessels of stained retinas (n=8 per group) were observed using confocal microscopy and fluorescence intensities were analyzed using Fluoview software (FV-300). In-vivo TGase activities were quantitatively determined using fluorescence intensities in the retinas of normal and diabetic mice.
Six-week-old male C57BL/6 mice were obtained from KOATECH (Pyeongtaek, Korea). TGase2^−/− mice (C57BL/6) were prepared by disrupting exons 5 and 6 of TGase2 by homologous recombination, as previously described. Diabetic mice were generated by a single intraperitoneal injection of streptozotocin (150 mg/kg body weight, Sigma) freshly prepared in 100 mM citrate buffer (pH 4.5) as previously described. Mice with non-fasting blood glucose levels greater than 19 mM, polyuria and glucosuria were considered diabetic. Experiments were performed in strict accordance with the guidelines of the Institutional Animal Care and Use Ethics Committee of Kangwon National University.
To validate the in-vitro findings, the present inventors further investigated the role of TGase2 in hyperglycemia-induced vascular leakage in the retina of diabetic mice. For this study, the present inventors designed an in-vivo TGase activity assay using confocal microscopy in mouse retina (FIG. 5A). In this assay, BAPA, which is a TGase2 pseudo substrate, was systemically delivered into the blood circulatory system by injection into the left ventricles of mice, and biotinylated proteins in the retinas were probed with FITC-conjugated streptavidin.
(A) A schematic diagram for determining TGase2 activity in mouse retina. (B,C) Streptozotocin-induced diabetic mice were intravitreally injected with 2 μl cystamine (diabetic+Cys), MDC (diabetic+MDC), C-peptide (diabetic+C-pep), Trolox (diabetic+Trolox) or NAC (diabetic+NAC) into one eye and an equal volume of PBS into the contralateral eye (diabetic). Non-diabetic mice were also intravitreally injected with 2 μl PBS into both eyes (normal). TGase2 activities in retinas were visualized by confocal microscopy and quantitatively determined as described in Research Design and Methods (n=8 per group). (B) Representative TGase activity images in the retinas. […] Scale bar, […]. (C) In-vivo TGase activities were quantified by measuring the fluorescence intensity in retinas (***p<0.001). […]

VEGF-induced TGase activation (in-situ TGase activity) [2]	hyperglycemia-induced TGase2 activation in diabetic retina (in-vivo TGase activity) [6]	Compound	VEGF-elevated intracellular Ca2+ levels [1]	VEGF-induced intracellular ROS generation [3]	VEGF-induced stress fiber formation [4]	VEGF-induced VE-cadherin disruption [5]
inhibited	–	CC(=O)OCOC(=O)CN(CC(=O)OCOC(C)=O)c1ccccc1OCCOc1ccccc1N(CC(=O)OCOC(C)=O)CC(=O)OCOC(C)=O [BAPTA-AM]	inhibited	significantly inhibited	–	–
–	–	NCCO [ethanolamine]	–	–	prevented	prevented
–	blocked	C-peptide: 31-amino acid peptide, EAEDLQVGQVELGGGPGAGSLQPLALEGSLQ (SEQ ID NO. 2), co-secreted with insulin by pancreatic β cells (listed as Homo sapiens)	–	–	prevented	prevented
inhibited	–	CC(=O)N[C@@H](CS)C(=O)O [NAC, N-acetyl cysteine]	–	–	–	–
